For orientation: IC50 means the midpoint of a concentration-inhibition curve.

Structures are written as SMILES. Read-outs that look alike come from different tables or passages of the source.

Holding throughout (assay type): cell-based
For one test, the system named is PLC/RF/5. Description: Cell growth inhibition assay, hepatocellular carcinoma cell line (Cell Titer Glo). The conditions noted are these: Homo sapiens, 72 h, 3 days. The protocol: (§1) Human tumor cell lines from hepatocellular carcinoma (HCC), C3A, Hep3B, HepG2, PLC/PRF/5, SNU182, SNU387, SNU398, SNU423, SNU449 and SNU475 were purchased from the ATCC. Human breast tumor cell lines, HCC2218, HCC1419, BT-474, SK-BR-3, UACC893, JIMT-1, MDA-MB-361, HCC202, MDA-MB-175-VII, HCC1569, HCC1937, HCC38, MDA-MB-157, HCC1954, HCC1500, BT483, KPL-1, SUM225 and ZR-75-1 from ATCC, SUM52 and SUM190 from Asterand, PLC (Detroit Mich.), were cultured in RPMI 1640 medium containing 10% FBS; SKBR3-W13 and BT-474-J4 cultured in RPMI 1640 medium containing 10% FBS and 1 μM lapatinib; KPL4 line was kindly provided by Dr Junichi Kurebayashi (Kawasaki Medical School, Okayama, Japan) and cultured in DMEM containing 5% FBS. JIMT-1 from European Collection of Cell Cultures (UK), is a line derived from a patient clinically resistant to trastuzumab (Herceptin®). SK-BR-3-W13 is a single cell clone isolated by a cloning cylinder after a single treatment of SK-BR-3 cells with 0.5 μM lapatinib. BT-474-J4 is a single cell clone derived from a pool of BT-474 cells that were selected to grow in lapatinib to a concentration of 3 μM.
(§2) Cells were seeded in a 96-well tissue culture plate (NUNC 136102) of RPMI medium containing 10% FBS at 500-2,000 cells per well. Approximately 24 hours after plating, cells were exposed to ten, two-fold or three-fold serial dilutions of either Compound A or B or the combination of the two agents at a 2:1 molar ratio (Compounds A and B respectively). In some cases, cells were grown in RPMI media containing 10% FBS and in the presence or absence of 2 ng/mL hepatocyte growth factor (HGF). Cells were incubated in the presence of compounds for 3 days. ATP levels were determined by adding Cell Titer Glo® (Promega) according to the manufacturer's protocol. Briefly, Cell Titer Glo® was added to each plate, incubated for 20 minutes then luminescent signal was read on the SpectraMax L plate reader with a 0.5 sec integration time. All assays were run at least in duplicate.
(§3) Inhibition of cell growth was estimated after treatment with compound or combination of compounds for three days and comparing the signal to cells treated with vehicle (DMSO). Cell growth was calculated relative to vehicle (DMSO) treated control wells. Concentration of compound that inhibits 50% of control cell growth (IC50) was back-interpolated when y=50% of DMSO treated control wells using nonlinear regression with the equation: […]
(§4) where A is the minimum response (ymin), B is the maximum response (Ymax), C is the inflection point of the curve (EC50) and D is the Hill coefficient.
(§5) Combination effects on potency were evaluated using the Combination Index (CI) and Excess Over Highest Single Agent (EHOSA) methods.

A further test has as its system C3A. The test is described as above. The settings on record: Homo sapiens, 72 h, 3 days. The protocol: as §1, §2, §3, §4, §5
The next test concerns KPL4. Description: Cell growth inhibition assay, breast tumor cell line (Cell Titer Glo). The settings on record: Homo sapiens, 72 h, KPL4 (HER2+), 3 days. As for the experimental part:
as §1, §2, §3, §4, §5
(§6) DNA Copy number data on the HER2 gene was collected for all breast cancer cell lines using the Affymetrix 500K chip (Affymetrix Inc, Sunnyvale, Calif.). Briefly DNA was extracted from each line, digested with the restriction enzyme Nsp or Sty, ligated to an adaptor and amplified by PCR. After PCR, DNA was fragmented, labeled, denatured, and hybridized to the Affymetrix 500K chip. Upon completion of hybridization, each assay was washed and stained. Image data were acquired. Similarly collected data from a panel 10 diploid non-tumorigenic lymphoblastic cell lines were used to calculate DNA copy number. All ‘SNP Chip’ images ('CEL files'), were extracted, read and normalized using the dChip software package (Lin et al. 2004. Bioinformatics. 20:1233-40). SNP-wise ‘copy-number ratios’ (log2 scale) were calculated for all cancer cell lines using the lymphoblastic reference panel and analyzed by circular binary segmentation to reduce noise (Olshen et al. 2004. Biostatistics. 5:557-72). Cell lines with log2 ratios of HER2>0.65 were considered HER2+.
A general note: Cellular ATP, detected with luciferase, serves as a proxy for viable cell number.

The test system of a further test is SK-BR-3. The description is as above. The settings on record: Homo sapiens, 72 h, SK-BR-3 (HER2+), 3 days. As for the experimental part: as §1, §2, §3, §4, §5, §6
In the next test the test system is KPL1. Described as above. The settings on record: Homo sapiens, KPL-1, 72 h, KPL1 (HER2−), 3 days. The protocol: as §1, §2, §3, §4, §5, §6
The next test concerns HCC1569. The test is described as above. The conditions noted are these: Homo sapiens, 72 h, HCC1569 (HER2−), 3 days. The protocol:
as §1, §2, §3, §4, §5, §6

The test system of the next test is HCC1954. The description is as above. The conditions noted are these: Homo sapiens, 72 h, HCC1954 (HER2+), 3 days. As for the experimental part: as §1, §2, §3, §4, §5, §6
The next test has as its system BT483. The test is described as above. The settings on record: Homo sapiens, BT-483, 72 h, BT483 (HER2−), 3 days. As for the experimental part:
as §1, §2, §3, §4, §5, §6

For the next test, the system named is MDA-MB-157. Described as above. The settings on record: Homo sapiens, 72 h, MDA-MB-157 (HER2−), 3 days. The protocol: as §1, §2, §3, §4, §5, §6
A further test has as its system SUM52. The description is as above. The settings on record: Homo sapiens, 72 h, SUM52 (HER2−), 3 days. The protocol:
as §1, §2, §3, §4, §5, §6

Another test concerns ZR-75-1. Described as above. The settings on record: Homo sapiens, 72 h, ZR-75-1 (HER2−), 3 days. The protocol: as §1, §2, §3, §4, §5, §6
The test system of another test is UACC893. Described as above. The conditions noted are these: Homo sapiens, UACC-893, 72 h, UACC893 (HER2+), 3 days. The protocol:
as §1, §2, §3, §4, §5, §6

The subject of test [1] is Human breast tumor cell lines. Kind of test: Cell growth inhibition, panel of breast tumor cell lines. The protocol:
Human tumor cell lines from hepatocellular carcinoma (HCC), C3A, Hep3B, HepG2, PLC/PRF/5, SNU182, SNU387, SNU398, SNU423, SNU449 and SNU475 were purchased from the ATCC. […]
Cells were seeded in a 96-well tissue culture plate (NUNC 136102) of RPMI medium containing 10% FBS at 500-2,000 cells per well. […] ATP levels were determined by adding Cell Titer Glo® (Promega) according to the manufacturer's protocol. Briefly, Cell Titer Glo® was added to each plate, incubated for 20 minutes then luminescent signal was read on the SpectraMax L plate reader with a 0.5 sec integration time. […]
Inhibition of cell growth was estimated after treatment with compound or combination of compounds for three days and comparing the signal to cells treated with vehicle (DMSO). Cell growth was calculated relative to vehicle (DMSO) treated control wells. […]
as §5
DNA Copy number data on the HER2 gene was collected for all breast cancer cell lines using the Affymetrix 500K chip (Affymetrix Inc, Sunnyvale, Calif.). […] All ‘SNP Chip’ images ('CEL files'), were extracted, read and normalized using the dChip software package (Lin et al. 2004. Bioinformatics. 20:1233-40). […]

[2] abbreviates: read-out: Single agent IC50, Compound A.
Setting [3] is: read-out: Single agent IC50, Compound B.

Turning to `CC(=O)Nc1cccc(-n2c(=O)n(C3CC3)c(=O)c3c(Nc4ccc(I)cc4F)n(C)c(=O)c(C)c32)c1` [Compound A, N-{3-[3-cyclopropyl-5-[(2-fluoro-4-iodophenyl)amino]-6,8-dimethyl-2,4,7-trioxo-3,4,6,7-tetrahydropyrido[4,3-d]pyrimidin-1(2H)-yl]phenyl}acetamide], the IC50 was 2.87 ± 1.56 µM in the test with PLC/RF/5 (PLC/RF/5, HGF + (2 ng/ml), read-out: Single agent IC50, Compound A); 1.6 ± 0.509 µM with PLC/RF/5 (PLC/RF/5, HGF −, read-out: Single agent IC50, Compound A); 0.036 ± 0.011 µM with C3A (HGF + (2 ng/ml), read-out: Single agent IC50, Compound A); 0.01 ± 0.003 µM in the test on C3A (HGF −, read-out: Single agent IC50, Compound A); above 1 µM with KPL4 (setting [2]); above 1 µM in the test on SK-BR-3 (setting [2]). The half-maximal inhibitory concentration (IC50) in the test on KPL1 (setting [2]) was above 1 µM; in the test with HCC1569 (setting [2]), above 1 µM; in the test with HCC1954 (setting [2]) it was 1.02 ± 0.839 µM; in the test with BT483 (setting [2]), above 1 µM; with MDA-MB-157 (setting [2]) it was above 1 µM; in the test with SUM52 (setting [2]), 0.009 ± 0.005 µM. Also, the concentration for half-maximal inhibition (IC50) in the test on ZR-75-1 (setting [2]) is above 1 µM; in the test with UACC893 (setting [2]), above 1 µM; in test [1] (SUM52 and MDA-MB-17511) it was at most 0.099 µM.

Take `COc1ncc(-c2ccc3nccc(-c4ccnnc4)c3c2)cc1NS(=O)(=O)c1ccc(F)cc1F` [Compound B, 2,4-difluoro-N-{2-(methyloxy)-5-[4-(4-pyridazinyl)-6-quinolinyl]-3-pyridinyl}benzenesulfonamide]: the IC50 in the test with PLC/RF/5 (PLC/RF/5, HGF + (2 ng/ml), read-out: Single agent IC50, Compound B) was found to be 0.015 ± 0.001 µM; with PLC/RF/5 (PLC/RF/5, HGF −, read-out: Single agent IC50, Compound B), 0.018 ± 0.012 µM; in the test with C3A (HGF + (2 ng/ml), read-out: Single agent IC50, Compound B) it was 0.013 ± 0.001 µM; with C3A (HGF −, read-out: Single agent IC50, Compound B), 0.013 ± 0.001 µM; in the test with KPL4 (setting [3]) it was 0.003 ± 0.001 µM; in the test with SK-BR-3 (setting [3]), 0.024 ± 0.02 µM. Moreover, the IC50 in the test with KPL1 (setting [3]) is 0.008 ± 0.004 µM; with HCC1569 (setting [3]), 0.076 ± 0.042 µM; in the test on HCC1954 (setting [3]) it was 0.011 ± 0.003 µM; with BT483 (setting [3]) it was 0.106 ± 0.081 µM; in the test with MDA-MB-157 (setting [3]) it was above 1 µM; in the test with SUM52 (setting [3]), 0.004 µM. Further, the IC50 in the test on ZR-75-1 (setting [3]) is 0.006 ± 0.001 µM; in the test on UACC893 (setting [3]), 0.003 ± 0.003 µM; in test [1] (all lines except HCC1937, SK-Br-3-W13 and MDA-MB-157), below 0.1 µM.
